IC50 and hSTING inhibitory activity data for 31 molecules are collected here from patent US20240279205A1, “NOVEL BENZIMIDAZOLE DERIVATIVE” (Carna Biosciences, Inc., priority 2020, published 2024).

Structures can show the parent of a compound that is named as a salt.

In this test the target is T1, human STING (hSTING) (Homo sapiens, UniProt Q86WV6).
T1 construct: host or cells: HEK-Blue ISG cells (HEK293-derived SEAP reporter line)
As to the kind of experiment: Inhibition test of intracellular human STING (hSTING) pathway using SEAP reporter cells (HEK-Blue ISG), stimulation with Compound 3. It counts as cell-based. Details: hSTING inhibitory activity: scale not given here. Conditions: Compound 3 10 nM stimulation, 21 hours; for IC50: read-out: hSTING inhibitory activity. On the procedure:
Inhibition test of intracellular human STING (hSTING) pathway using reporter cells
Since STING activates the transcription factor IRF3 upon ligand stimulation, the activity of STING can be evaluated by a reporter assay using a secretory alkaline phosphatase (SEAP reporter) integrated downstream of an IRF-inducible promoter.
That is, the hSTING inhibitory activity of the test compound was evaluated using HEK-Blue™MISG cells (manufactured by Invivogen, #hkb-isg-1) incorporating a SEAP reporter. Activation of hSTING was performed by stimulation with the small molecule ligand Compound 3 as described in the literature (Ramanjulu, J. M., et al., Nature. 2018, 564 (7736), 439-443). HEK-Blue™MISG cells were seeded in a 96-well plate and cultured overnight at 37° C. in a 5% CO2 incubator. To each well of this cell culture plate, a test compound solution adjusted to a final concentration of 0.1 to 10 µM of the test compound was added, cultured for 1 hour in a CO2 incubator, and then Compound 3 (final concentration 10 nM) was added and further cultured in a CO2 incubator for 21 hours. After collecting the culture supernatant of each well, the reporter activity was measured by color development reaction with alkaline phosphatase.
The reporter activity of the test compound non-addition and Compound 3 addition group was set to 100%, and the reporter activity of the test compound non-addition and Compound 3 non-addition group was set to 0%. The IC50 value was determined by regression analysis of the inhibitory rate determined from the reporter activity at each compound concentration and the test compound concentration (logarithm).

T1 sequence (Q86WV6 whole entry H232R): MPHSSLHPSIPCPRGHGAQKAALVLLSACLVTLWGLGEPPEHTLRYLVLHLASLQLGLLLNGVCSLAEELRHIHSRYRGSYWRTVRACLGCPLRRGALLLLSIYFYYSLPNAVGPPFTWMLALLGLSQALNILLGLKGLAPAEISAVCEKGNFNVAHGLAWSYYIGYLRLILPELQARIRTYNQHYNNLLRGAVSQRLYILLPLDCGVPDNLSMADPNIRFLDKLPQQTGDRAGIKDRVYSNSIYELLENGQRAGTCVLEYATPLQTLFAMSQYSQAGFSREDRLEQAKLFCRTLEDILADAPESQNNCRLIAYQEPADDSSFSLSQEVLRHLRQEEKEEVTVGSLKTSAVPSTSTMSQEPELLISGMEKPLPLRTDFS

Regarding `Clc1ccc2[nH]cc(Nc3nc4cc(-c5cccnc5)ccc4[nH]3)c2n1` [Embodiment 97, N-(5-Chloro-1H-pyrrolo[3,2-b]pyridin-3-yl)-5-(pyridin-3-yl)-1H-benzo[d]imidazol-2-amine], the IC50 is 1 to 10 µM.
On the same count and under the same terms, for `Clc1ccc2[nH]cc(Nc3nc4cc(-c5ccc(CN6CCOCC6)cc5)ccc4[nH]3)c2n1` [Embodiment 98, N-(5-Chloro-1H-pyrrolo[3,2-b]pyridin-3-yl)-5-[4-(morpholinomethyl)phenyl]-1H-benzo[d] imidazol-2-amine] the value was at least 10 µM.
Take `Clc1ccc2[nH]cc(Nc3nc4cc(-c5cccc(CN6CCOCC6)c5)ccc4[nH]3)c2n1` [Embodiment 99, N-(5-Chloro-1H-pyrrolo[3,2-b]pyridin-3-yl)-5-[3-(morpholinomethyl)phenyl]-1H-benzo[d] imidazol-2-amine]: the hSTING inhibitory activity result was “* *”.
Take `Cn1cc(-c2ccc3[nH]c(Nc4c[nH]c5ccc(Cl)nc45)nc3c2)cn1` [Embodiment 102, N-(5-chloro-1H-pyrrolo[3,2-b]pyridin-3-yl)-5-(1-methyl-1H-pyrazol-4-yl)-1H-benzo[d]imidazole-2-amine]: the IC50 was at least 10 µM.
With `Clc1ccc2[nH]cc(Nc3nc4cc(C5=CCOCC5)ccc4[nH]3)c2n1` [Embodiment 105, N-(5-chloro-1H-pyrrolo[3,2-b]pyridin-3-yl)-5-(3,6-dihydro-2H-pyran-4-yl)-1H-benzo[d] imidazol-2-amine], the hSTING inhibitory activity result was “* *”.
For `C[Si](C)(C)C#Cc1ccc2[nH]cc(Nc3nc4cc(Oc5ccccc5)ccc4[nH]3)c2n1` [Embodiment 106, 5-phenoxy-N-{5-[(trimethylsilyl)ethynyl]-1H-pyrrolo[3,2-b]pyridin-3-yl}-1H-benzo[d]imidazol-2-amine], the IC50 lay in the range of 1 to 10 µM.
For the molecule `Cc1cnc2[nH]cc(Nc3nc4cc(Oc5ccccc5)ccc4[nH]3)c2c1` [Embodiment 107, N-(5-methyl-1H-pyrrolo[2,3-b]pyridin-3-yl)-5-phenoxy-1H-benzo[d]imidazol-2-amine], the IC50 was at least 10 µM.
Same read-out and setting: for `COCCn1c(Nc2c[nH]c3ccc(Cl)nc23)nc2cc(Cl)c(Cl)cc21` [Embodiment 110, 5,6-dichloro-N-(5-chloro-1H-pyrrolo[3,2-b]pyridin-3-yl)-1-(2-methoxyethyl)-1H-benzo[d] imidazole-2-amine] the value was 1 to 10 µM; for `N#Cc1cccc2[nH]c(Nc3c[nH]c4ccc(Cl)nc34)nc12` [Embodiment 113, 2-[(5-Chloro-1H-pyrrolo[3,2-b]pyridin-3-yl)amino]-1H-benzo [d]imidazole-4-carbonitrile], at least 10 µM.
On the same count and under the same terms, for `CN1CCC(Oc2ccc3[nH]c(Nc4c[nH]c5ccc(Cl)nc45)nc3c2)CC1` [Embodiment 121, N-(5-Chloro-1H-pyrrolo[3,2-b]pyridin-3-yl)-5-[(1-methylpiveridin-4-yl)oxy]-1H-benzo[d]imidazole-2-amine] the value was 1 to 10 µM.
The same measure, in the same setting: in the case of `CN(C)C(=O)c1cccc2c(Nc3nc4cc(Oc5ccccc5)ccc4[nH]3)c[nH]c12` [Embodiment 122, N,N-dimethyl-3-[(5-phenoxy-1H-benzo[d]imidazol-2-yl)amino]-1H-indole-7-carboxamide formate] it was 1 to 10 µM.
Take `ClC(=CC1CC1)c1ccc2[nH]c(Nc3c[nH]c4ccc(Cl)nc34)nc2c1` [Embodiment 126, N-(5-chloro-1H-pyrrolo[3,2-b]pyridin-3-yl)-5-(1-chloro-2-cyclopropylvinyl)-1H-benzo[d] imidazole-2-amine]: the hSTING inhibitory activity entry is reported as “* *”.
With `CC(C)n1c(Nc2c[nH]c3ccc(Cl)nc23)nc2cc(Cl)c(Cl)cc21` [Embodiment 132, 5,6-dichloro-N-(5-chloro-1H-pyrrolo[3,2-b]pyridin-3-yl)-1-isopropyl-1H-benzo[d]imidazol-2-amine], the IC50 lay in the range of 1 to 10 µM.
Consider `CN(C)CCn1c(Nc2c[nH]c3ccc(Cl)nc23)nc2ccc(Oc3ccccc3)cc21` [Embodiment 134, N-(5-Chloro-1H-pyrrolo[3,2-b]pyridin-3-yl)-1-[2-(dimethylamino)ethyl]-6-phenoxy-1H-benzo[d] imidazole-2-amine diformate], for which the IC50 is at least 10 µM.
On the same count and under the same terms, in the case of `Clc1ccc2[nH]cc(Nc3nc4c5c(ccc4[nH]3)OCCO5)c2n1` [Embodiment 135, N-(5-chloro-1H-pyrrolo[3,2-b]pyridin-3-yl)-7,8-dihydro-3H-[1,4] dioxino[2′,3′:3, 4]benzo[1,2-d]imidazol-2-amine] it was at least 10 µM.
In the case of `CC=C(Cl)c1ccc2[nH]c(Nc3c[nH]c4ccc(Cl)nc34)nc2c1` [Embodiment 137, N-(5-Chloro-1H-pyrrolo[3,2-b]pyridin-3-yl)-5-(1-chloroprop-1-en-1-yl)-1H-benzo[d]imidazole-2-amine], the hSTING inhibitory activity result is “* * *”.
On to `Cn1c(Nc2c[nH]c3ccc(Cl)nc23)nc2cc(F)c(F)cc21` [Embodiment 138, N-(5-Chloro-1H-pyrrolo[3,2-b]pyridin-3-yl)-5,6-difluoro-1-methyl-1H-benzo[d]imidazol-2-amine], for which the IC50 is at least 10 µM.
The same measure, in the same setting: in the case of `Clc1ccc2[nH]cc(Nc3nc4cc(OC5COC5)ccc4[nH]3)c2n1` [Embodiment 139, N-(5-Chloro-1H-pyrrolo[3,2-b]pyridin-3-yl)-5-(oxetan-3-yloxy)-1H-benzo[d]imidazol-2-amine] it was at least 10 µM.
The same measure, in the same setting: in the case of `COCCOc1ccc2[nH]c(Nc3c[nH]c4ccc(Cl)nc34)nc2c1` [Embodiment 140, N-(5-Chloro-1H-pyrrolo[3,2-b]pyridin-3-yl)-5-(2-methoxyethoxy)-1H-benzo[d]imidazol-2-amine] it was at least 10 µM; in that of `Clc1ccc2[nH]cc(Nc3nc4cc5c(cc4[nH]3)OCCO5)c2n1` [Embodiment 141, N-(5-chloro-1H-pyrrolo[3,2-b]pyridin-3-yl)-6,7-dihydro-1H-[1,4] dioxino[2′,3′:4, 5]benzo[1,2-d]imidazol-2-amine], 1 to 10 µM.
The same measure, in the same setting: for `Clc1ccc2[nH]cc(Nc3nc4cc(OC5CCOCC5)ccc4[nH]3)c2n1` [Embodiment 142, N-(5-Chloro-1H-pyrrolo[3,2-b]pyridin-3-yl)-5-[(tetrahydro-2H-pyran-4-yl)oxy)-1H-benzo[d] imidazol-2-amine] the value was at least 10 µM; for `COCCOc1cc2nc(Nc3c[nH]c4ccc(Cl)nc34)[nH]c2cc1OCCOC` [Embodiment 143, N-(5-Chloro-1H-pyrrolo[3,2-b]pyridin-3-yl)-5,6-bis(2-methoxyethoxy)-1H-benzo[d]imidazol-2-amine], at least 10 µM.
Regarding `CN(C)CC#Cc1ccc2[nH]c(Nc3c[nH]c4ccc(Cl)nc34)nc2c1` [Embodiment 146, N-(5-Chloro-1H-pyrrolo[3,2-b]pyridin-3-yl)-5-[3-(dimethylamino)prop-1-yn-1-yl]-1H-benzo[d] Imidazol-2-amine], the IC50 is at least 10 µM.
The same measure, in the same setting: in the case of `Clc1ccc2[nH]cc(Nc3nc4c(-c5cccnc5)cccc4[nH]3)c2n1` [Embodiment 147, N-(5-Chloro-1H-pyrrolo[3,2-b]pyridin-3-yl)-4-(pyridin-3-yl)-1H-benzo[d]imidazol-2-amine] it was at least 10 µM; in that of `Clc1ccc2[nH]cc(Nc3nc4c(-c5ccncc5)cccc4[nH]3)c2n1` [Embodiment 148, N-(5-Chloro-1H-pyrrolo[3,2-b]pyridin-3-yl)-4-(pyridin-4-yl)-1H-benzo[d]imidazol-2-amine], at least 10 µM; in that of `Clc1ccc2[nH]cc(Nc3nc4c(C5CCOCC5)cccc4[nH]3)c2n1` [Embodiment 150, N-(5-chloro-1H-pyrrolo[3,2-b]pyridin-3-yl)-4-(tetrahydro-2H-pyran-4-yl)-1H-benzo[d]imidazole-2-amine], at least 10 µM.
The same measure, in the same setting: in the case of `Cc1ccc2nc(Nc3c[nH]c4ccc(Cl)nc34)n(C)c2c1` [Embodiment 152, N-(5-Chloro-1H-pyrrolo[3,2-b]pyridin-3-yl)-1,6-dimethyl-1H-benzo [d]imidazol-2-amine] it was at least 10 µM.
Same read-out and setting: in the case of `Cn1c(Nc2c[nH]c3ccc(Cl)nc23)nc2cc(C3CCOCC3)ccc21` [Embodiment 153, N-(5-chloro-1H-pyrrolo[3,2-b]pyridin-3-yl)-1-methyl-5-(tetrahydro-2H-pyran-4-yl)-1H-benzo[d] imidazol-2-amine] it was at least 10 µM; in that of `Cn1c(Nc2c[nH]c3ccc(Cl)nc23)nc2ccc(C3CCOCC3)cc21` [Embodiment 154, N-(5-chloro-1H-pyrrolo[3,2-b]pyridin-3-yl)-1-methyl-6-(tetrahydro-2H-pyran-4-yl)-1H-benzo[d] imidazol-2-amine], at least 10 µM; in that of `Cn1c(Nc2c[nH]c3ccc(Cl)nc23)nc2c(F)cccc21` [Embodiment 155, N-(5-Chloro-1H-pyrrolo[3,2-b]pyridin-3-yl)-4-fluoro-1-methyl-1H-benzo[d]imidazol-2-amine], at least 10 µM.
`Cc1ccc2c(c1)nc(Nc1c[nH]c3ccc(Cl)nc13)n2C` [Embodiment 156, N-(5-Chloro-1H-pyrrolo[3,2-b]pyridin-3-yl)-1,5-dimethyl-1H-benzo [d]imidazol-2-amine]: the IC50 is at least 10 µM.
